These results are taken from US8557559B2, “Self-dying recombinant microorganism for measuring soil and water contamination” (priority 2010, dated 2013).

Common to all, as to assay type: cell-based
In assay [1] the test system is recombinant strain, Sphingomonas paucimobilis (SEQ ID NO. 1). As to the kind of experiment: Verification of substrate specificity: fluorescence reaction of recombinant strain in inorganic medium (LIVE/DEAD BacLight staining, micro-plate reader). Particulars: inorganic medium with pyruvate; about 50 mg/L through about 500 mg/L; FIG. 2. How it is done: Phenanthrene was added to an inorganic medium including pyruvate as a carbon source, up to phenanthrene concentrations of about 50 mg/L through about 500 mg/L, the recombinant strain was inoculated, and a sample was taken every 24-hour and stained using LIVE/DEAD BacLight bacterial viability kit (Molecular Probes, L7012) and a fluorescence reaction was measured by a micro-plate reader.
A reaction of the recombinant strain with respect to an inorganic medium including hexane and hexadecane that are aliphatic hydrocarbon having the equivalent concentration, hexane concentrations being about 50 mg/L through about 500 mg/L and hexadecane concentrations being about 50 mg/L through about 500 mg/L, and a reaction of the recombinant strain with respect to an inorganic medium including toluene that is a monoaromatic hydrocarbon, toluene concentrations being about 1 mg/L through about 50 mg/L, were respectively measured for comparison.
The LIVE/DEAD BacLight bacterial viability kit is a dying scheme that labels, using a DNA-binding dye, DNA of a live microorganism with green fluorescence and labels, using […], DNA of dead microorganism with red fluorescence and thus, indicates a viability of microorganisms.
The reaction of the recombinant strain was expressed by a relative fluorescence intensity FL/FL0, that is, a value obtained by dividing a fluorescence reaction value FL of a recombinant strain exposed to a target contaminant by a fluorescence reaction value FL0 of a recombinant strain that is not exposed to the target contaminant. The relative fluorescence intensity FL/FL0 expresses the reaction of the recombinant strain, which is based on a concentration of contaminant, with a rate of decreasing fluorescence and thus, an error rate may be reduced during a test, and a concentration of toxicity may be expressed with a standardized fluorescence intensity value.

For assay [2] the test system is unchanged. As to the kind of experiment: Performance of recombinant strain in real soil (M soil), CLSM fluorescence. The note with it: 50 mg/kg to 1000 mg/kg, 24-hours, FIGS. 5 and 6. An excerpt: (§1) A confocal laser scanning microscope (CLSM) may measure a fluorescence reaction of the mixture of a soil sample and microorganisms to analyze phenanthrene in the soil sample. An image including measured green fluorescence and measured red fluorescence may be converted into a grayscale image after removing the measured red fluorescence from the image based on Adobe Photoshop CS4 (Adobe Systems, CA, USA). An integrated fluorescence intensity in an image of 254×254 pixels was quantified using a measure function of ImageJ program (ImageJ; Rasband, 1997-2009). The integrated fluorescence intensity may be a value obtained by dividing sum of illuminance of all the pixels by a number of the pixels in the image.
Phenanthrene was added to soil that had not been contaminated with phenanthrene up to concentrations from 50 mg/kg to 1000 mg/kg, an inorganic medium was added, the inorganic medium of 10 mL per soil of 2 g, the recombinant strain was inoculated and cultivated for 24-hours, and a reaction was measured in the same manner as Example 3.

Assay [3] has the same test system. Kind of assay: Performance of recombinant strain in model soil (Ottawa sand), CLSM fluorescence quantified with ImageJ. Particulars: model soil contaminated 50 mg/kg to 1000 mg/kg; FIG. 3.
Source text: as §1
Ottawa sand was used as a model soil. The model soil was contaminated with phenanthrene up to concentrations from 50 mg/kg to 1000 mg/kg, an inorganic medium including pyruvate as a source of carbon was added, the inorganic medium of 10 mL per the model soil of 2 g, the recombinant strain was inoculated, and a sample was taken every 24-hour to measure a fluorescence response.
A fluorescence response was photographed by a CLSM to directly measure a mixture of the model soil, the liquid medium, and the recombinant strain, and the measured fluorescence reaction was quantified using an ImageJ program. […]

As to `CCCCCC` [hexane], the “response of the recombinant strain (relative fluorescence intensity FL/FL0)” value in assay [1] is recorded as “may not respond”.

Take `c1ccc2c(c1)ccc1ccccc12` [phenanthrene]: the “reaction of the recombinant strain to phenanthrene in real soil” value in assay [2] was “significantly sensitive to phenanthrene concentrations”. Moreover, in assay [3], the “response of the recombinant strain to phenanthrene in Ottawa sand” value is recorded as “as phenanthrene concentrations increase, a number of live microorganisms decrease”. Further, in assay [1], the “response of the recombinant strain (relative fluorescence intensity FL/FL0)” value was “death response”.

Take `CCCCCCCCCCCCCCCC` [hexadecane]: in assay [1], the “response of the recombinant strain (relative fluorescence intensity FL/FL0)” value is listed as “may not respond”.
